Where a name gives a salt, the structure may show the parent alone. Read-outs that look alike come from different tables or passages of the source.
Assays:
F508del CFTR = target: T1, F508del CFTR (Homo sapiens, UniProt P13569, DEL508-508); test: YFP fluorescence quenching functional assay (iodide influx), HEK293 cells with F508del CFTR and halide sensitive YFP; type: cell-based; conditions: for remaining activity at 10 µM: read-out: % YFP quench
T1 construct: expressed in transfected cells; host or cells: HEK293 Griptite cells stably expressing F508del CFTR, transiently transfected with halide-sensitive eYFP
Procedure: In addition to the MDS compounds, the 1120 Prestwick Library compounds were screened. (See FIGS. 7 to 12.) Of the compounds, one qualified as a “strong” hit, 3 as “medium” hits and 57 as “weak” hits. The Z score for the assay was 0.62. The top 50 hits were further tested in a counter screen in which the halide sensitive fluorescent compound (YFP) was expressed inside cells (Table 2). After incubation with the test compounds the ability of the cells to uptake iodide was measure by decreasing YFP fluorescence. In these cells this can only occur if functional CFTR is present at the cell surface (FIG. 7). The hits were also tested for the appearance of the Band C form of CFTR. […] The functionality of the compounds was further studied by the use of Iodide efflux assays for each compound in both BHK and the more physiologically relevant CFBE cells. […] FIG. 10 is a table of results for the 15 hit compounds which summarizes many experiments. […] The results for the best 15 compounds from the Prestwick Library, or “Prestwick 15”, are shown FIGS. 8, 9 and 10.
Strongly adhesive Human […] Kidney cells stably expressing both the human macrophage scavenger receptor (HEK293 Griptite, Invitrogen) and F508del CFTR were plated in 96-well plates and transiently transfected with pcDNA3 plasmid encoding a halide sensitive variant of eYFP. After 24-48 h later cells were exposed to 10 μM test compound in triplicate and incubated for an additional 24 h. Cells were stimulated for 20 minutes with a in a buffer containing 25 μM forskolin, 45 μM IBMX and 50 μM genistein final concentration. The high content screening assay was performed using a Cellomics platform. Iodide was added robotically to a final concentration of 50 mM and the resulting decrease in fluorescence was measured. Images were taken at time 0 and stored for subsequent use when calculating a mask so that only those cells that express YFP at time 0 are measured. The quenching was detected in 15 images taken over the course of an experiment lasting 40 seconds. Each test compound was compared to the following two controls: a negative control without drugs to assess photobleaching that may occur when the same field of view is repeatedly imaged, and a positive control with cells treated with a known potentiator. Results were generated from 150-300 cells per well.

ΔF508-CFTR = ΔF508-CFTR (Homo sapiens, UniProt P13569, DEL508-508); type: cell-based; set-up: which was then ligated into full length pNUT-CFTR linearized using Hpa1 and Pml1; expressed in transfected cells; conditions: for hit in screen (class letter): BHK cells
Procedure: BHK cells expressing 3HA-tagged ΔF508-CFTR between passages 5-8 were seeded in 96-well plates (Corning half area, black-sided, clear bottom) at 15,000 cells per well and incubated with culture medium for 24 h at 37° C. Each well was then treated with a different test compound (80 compounds per plate) for 24 h at 20 μM final concentration. The remaining 16 wells on each plate were used for control conditions. […] Cells were fixed in a 4% paraformaldehyde solution, washed with PBS, and blocked with PBS containing 5% fetal bovine serum (FBS) for 1 hat 4° C.
Blocking solution was replaced with 15 μl of primary antibody solution containing 1% FBS and mouse monoclonal anti-HA antibody (1:150 dilution, Sigma) in PBS. The plates were sealed and left at 4° C. overnight. After three washes with 100 μl PBS, cells were incubated for 1 h with 15 μl of secondary antibody solution containing 1% FBS and anti-mouse IgG conjugated with FITC (1:100 dilution, Sigma) in PBS. Cells were again washed three times with 100 μl of PBS and analyzed in a plate reader (Analyst™ HT96.384, Biosystems; 488 nm excitation/510 nm emission). […] The mean fluorescence of four untreated wells was used as the background signal when calculating deviations of the 80 compound-treated wells. Hits were then cherry-picked into reservoir plates and re-tested in duplicate using the same assay.
BHK cells expressing ΔF508-CFTR were incubated with test compounds (20 μM) for 24 hours at 37° C. in a 96 well format. Plasma membrane expression of ΔF508-CFTR was then assayed by immunofluorescence using a primary antibody directed against the inserted 3HA tag and a secondary antibody conjugated with a fluorophore (FITC). […] The positive compounds were selected and retested in duplicate to obtain an N of 3. At the re-screening stage, the intrinsic fluorescence of each potential hit was also measured and the fluorescent ones were not considered further.
Screening was performed using BHK cells that stably express F508-CFTR bearing three tandem haemagglutinin-epitope tags (3HA) and linker sequences in the fourth extracellular loop after amino acid 901 (Howard et al., 1995; Carlile et al., 2007; Robert et al., 2008). […] Screening was performed using the Prestwick Chemical Library of 1120 high-purity compounds.

[1] = 10 μM, 24 h, nc = 100% pc = 69.2
[2] = Prestwick library, initial corrector assay
[3] = Prestwick library, initial corrector assay, standard deviations above untreated controls
[4] = HEK293, 10 μM, 24 h, nc = 100% pc = 69.2

Sequence of ΔF508-CFTR (P13569 with tags, fused parts or gaps DEL508-508): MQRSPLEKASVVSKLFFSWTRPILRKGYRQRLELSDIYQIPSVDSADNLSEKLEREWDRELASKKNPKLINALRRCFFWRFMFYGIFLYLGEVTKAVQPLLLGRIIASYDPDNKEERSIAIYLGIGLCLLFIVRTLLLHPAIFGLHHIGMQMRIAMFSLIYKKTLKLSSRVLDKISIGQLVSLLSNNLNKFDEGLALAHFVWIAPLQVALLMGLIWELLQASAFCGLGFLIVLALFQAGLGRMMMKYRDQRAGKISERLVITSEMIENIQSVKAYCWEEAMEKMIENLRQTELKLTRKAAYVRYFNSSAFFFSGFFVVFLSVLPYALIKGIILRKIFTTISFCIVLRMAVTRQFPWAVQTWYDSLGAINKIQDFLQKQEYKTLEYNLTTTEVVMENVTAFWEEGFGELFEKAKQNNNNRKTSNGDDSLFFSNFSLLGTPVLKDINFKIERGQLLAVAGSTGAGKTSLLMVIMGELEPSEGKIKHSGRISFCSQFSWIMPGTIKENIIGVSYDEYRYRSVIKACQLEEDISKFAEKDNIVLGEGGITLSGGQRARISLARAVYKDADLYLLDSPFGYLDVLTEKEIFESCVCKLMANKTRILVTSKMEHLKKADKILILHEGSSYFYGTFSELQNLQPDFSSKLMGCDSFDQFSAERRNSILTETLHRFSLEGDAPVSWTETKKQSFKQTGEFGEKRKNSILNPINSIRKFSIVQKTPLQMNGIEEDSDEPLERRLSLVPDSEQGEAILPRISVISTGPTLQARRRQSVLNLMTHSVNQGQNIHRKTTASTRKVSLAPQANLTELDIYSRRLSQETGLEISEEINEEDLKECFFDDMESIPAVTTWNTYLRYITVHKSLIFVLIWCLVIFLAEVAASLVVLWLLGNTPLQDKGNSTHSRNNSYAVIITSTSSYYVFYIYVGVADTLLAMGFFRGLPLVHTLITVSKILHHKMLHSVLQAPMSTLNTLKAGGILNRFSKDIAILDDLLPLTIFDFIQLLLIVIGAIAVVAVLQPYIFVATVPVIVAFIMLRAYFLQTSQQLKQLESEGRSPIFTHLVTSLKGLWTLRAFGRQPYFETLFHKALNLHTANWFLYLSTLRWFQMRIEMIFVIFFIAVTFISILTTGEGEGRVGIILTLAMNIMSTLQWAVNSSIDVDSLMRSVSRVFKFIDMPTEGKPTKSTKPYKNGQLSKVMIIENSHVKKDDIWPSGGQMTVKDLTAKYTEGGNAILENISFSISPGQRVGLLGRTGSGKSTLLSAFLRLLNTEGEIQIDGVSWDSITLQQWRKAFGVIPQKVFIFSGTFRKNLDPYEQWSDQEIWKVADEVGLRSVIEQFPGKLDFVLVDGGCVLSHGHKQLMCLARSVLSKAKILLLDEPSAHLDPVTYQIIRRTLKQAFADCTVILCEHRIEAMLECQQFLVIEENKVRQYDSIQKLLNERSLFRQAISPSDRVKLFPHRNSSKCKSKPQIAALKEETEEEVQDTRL
T1 sequence (P13569 with tags, fused parts or gaps DEL508-508): as above

Structure (SMILES) | % YFP quench (F508del CFTR; [1]) | hit in screen (class letter) (ΔF508-CFTR; [2]) | hit in screen (score) (ΔF508-CFTR; [3]) | remaining activity at 10 µM (F508del CFTR; [4]) | hit in screen (score) (ΔF508-CFTR) | remaining activity at 10 µM (F508del CFTR; HEK293, 24 h) | signal in the trafficking assay (ΔF508-CFTR)
CN(Cc1cnc2nc(N)nc(N)c2n1)c1ccc(C(=O)N[C@@H](CCC(=O)O)C(=O)O)cc1 (racemic) [Amethopterin (R, S)] | 109% | W (Medium and weak hits were defined as compounds giving a cell fluorescence signal that was between 2 and 3 or 1 and 2 standard deviations, respectively, above untreated control wells) | 1.2 |  |  |  | 
COC1=CC(=O)O[C@@H](/C=C/c2ccccc2)C1 [Kawain] |  | W (Medium and weak hits were defined as compounds giving a cell fluorescence signal that was between 2 and 3 or 1 and 2 standard deviations, respectively, above untreated control wells) | 1.1 | 111% |  |  | 
CC[C@H]1OC(=O)[C@H](C)[C@@H](O[C@H]2C[C@@](C)(OC)[C@@H](O)[C@H](C)O2)[C@H](C)[C@@H](O[C@@H]2O[C@H](C)C[C@H](N(C)C)[C@H]2O)[C@](C)(O)C[C@@H](C)/C(=N\OCOCCOC)[C@H](C)[C@@H](O)[C@]1(C)O [Roxithromycin] |  | W (Medium and weak hits were defined as compounds giving a cell fluorescence signal that was between 2 and 3 or 1 and 2 standard deviations, respectively, above untreated control wells) | 1.2 | 100% |  |  | 
NC(=O)N1c2ccccc2C=Cc2ccccc21 [Carbamazenine] | 86% | W (Medium and weak hits were defined as compounds giving a cell fluorescence signal that was between 2 and 3 or 1 and 2 standard deviations, respectively, above untreated control wells) | 1.1 |  |  |  | 
CCOc1ccc2ccccc2c1C(=O)N[C@@H]1C(=O)N2[C@@H]1SC(C)(C)[C@@H]2C(=O)O [Nafcillin sodium salt monohydrate] |  |  |  | 97% | W 1.2 |  | 
O=C(O)[C@H](O)[C@@H](O)[C@H](O[C@@H]1O[C@H](CO)[C@H](O)[C@H](O)[C@H]1O)[C@H](O)CO [Lactoblonic acid] | 78% | W (Medium and weak hits were defined as compounds giving a cell fluorescence signal that was between 2 and 3 or 1 and 2 standard deviations, respectively, above untreated control wells) | 1.2 |  |  |  | 
C[C@]12CC[C@H](O)C[C@@H]1CC[C@@H]1[C@@H]2CC[C@]2(C)C(=O)CC[C@@H]12 [Epiandrosterone] |  |  |  |  | W 1.0 | 93% | consistently elevated signal
CC[C@@H](CO)NC(=O)[C@@H]1C=C2c3cccc4[nH]cc(c34)C[C@H]2N(C)C1 [Methylergometrine maleate] |  | W (Medium and weak hits were defined as compounds giving a cell fluorescence signal that was between 2 and 3 or 1 and 2 standard deviations, respectively, above untreated control wells) | 1.1 | 94% |  |  | 
CCCCOc1ccc(OCCCN2CCOCC2)cc1 [Pramoxine hydrochloride] |  | W (Medium and weak hits were defined as compounds giving a cell fluorescence signal that was between 2 and 3 or 1 and 2 standard deviations, respectively, above untreated control wells) | 1.2 | 89% |  |  | 
C[C@@H]1CCC[C@H](C)N1NC(=O)c1ccc(Cl)c(S(N)(=O)=O)c1 [Clopamide] |  | W (Medium and weak hits were defined as compounds giving a cell fluorescence signal that was between 2 and 3 or 1 and 2 standard deviations, respectively, above untreated control wells) | 1.1 | 79% |  |  | 

From patent US20110009351A1, “SCREENING ASSAY TO IDENTIFY CORRECTORS OF PROTEIN TRAFFICKING DEFECTS” (Traffick Therepeutics Inc., priority 2007, published 2011)
